The text below walks through data of BindingDB's records for doi:10.7270/Q2TX3CSC (Vanderbilt Screening Center for GPCRs, Ion Channels and …, 2009).

This assay has as its target T1, Solute carrier family 12 member 5 (Homo sapiens, UniProt Q9H2X9).
T1 sequence (Q9H2X9 whole entry): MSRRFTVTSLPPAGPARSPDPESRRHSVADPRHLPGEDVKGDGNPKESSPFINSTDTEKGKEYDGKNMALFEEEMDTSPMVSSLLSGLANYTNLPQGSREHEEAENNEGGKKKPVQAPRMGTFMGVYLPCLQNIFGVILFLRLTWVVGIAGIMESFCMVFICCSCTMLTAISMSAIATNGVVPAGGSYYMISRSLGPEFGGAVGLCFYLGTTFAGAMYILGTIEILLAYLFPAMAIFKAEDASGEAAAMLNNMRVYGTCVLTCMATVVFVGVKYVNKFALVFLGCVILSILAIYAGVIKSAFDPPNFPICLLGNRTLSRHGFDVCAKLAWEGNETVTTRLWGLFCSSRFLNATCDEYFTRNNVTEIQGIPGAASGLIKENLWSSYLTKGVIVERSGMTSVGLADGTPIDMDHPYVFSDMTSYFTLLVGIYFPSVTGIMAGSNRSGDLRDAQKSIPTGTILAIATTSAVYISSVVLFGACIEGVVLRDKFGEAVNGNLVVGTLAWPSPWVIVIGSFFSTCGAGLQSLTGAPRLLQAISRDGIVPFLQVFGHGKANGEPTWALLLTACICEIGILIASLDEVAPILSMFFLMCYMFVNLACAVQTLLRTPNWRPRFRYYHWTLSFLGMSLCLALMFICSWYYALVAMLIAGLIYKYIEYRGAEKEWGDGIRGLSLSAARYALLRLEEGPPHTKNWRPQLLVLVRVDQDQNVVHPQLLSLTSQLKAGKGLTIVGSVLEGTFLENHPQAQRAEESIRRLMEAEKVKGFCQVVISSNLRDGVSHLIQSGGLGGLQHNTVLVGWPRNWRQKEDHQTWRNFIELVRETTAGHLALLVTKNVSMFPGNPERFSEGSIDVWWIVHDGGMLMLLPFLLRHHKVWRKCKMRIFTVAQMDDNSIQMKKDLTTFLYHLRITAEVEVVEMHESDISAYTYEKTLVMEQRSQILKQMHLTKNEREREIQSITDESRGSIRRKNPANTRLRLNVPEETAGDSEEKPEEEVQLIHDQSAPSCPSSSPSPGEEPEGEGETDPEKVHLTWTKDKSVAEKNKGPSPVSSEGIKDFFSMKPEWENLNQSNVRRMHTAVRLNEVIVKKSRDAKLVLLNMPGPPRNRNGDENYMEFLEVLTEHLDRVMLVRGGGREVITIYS
Kind of assay: KCC2 modulator potency by thallium flux, dose response, cell-based, HEK293 KCC2, FluoZin-2 fluorescence (AID 1736).

Setting [1] is: inactive by the depositor's call.

Turning to `N#Cc1nc(-c2cccs2)oc1N1CCN(Cc2ccccc2)CC1` [5-(4-benzyl-1-piperazinyl)-2-(2-thienyl)-1,3-oxazole-4-carbonitrile], the midpoint of the response, the EC50, lay at 3.58 µM.

Take `N#Cc1nc(Cc2cccc3ccccc23)oc1N1CCOCC1` [5-(4-morpholinyl)-2-(1-naphthalenylmethyl)-4-oxazolecarbonitrile]: the response was half-maximal at 1.32 µM (EC50).

Molecule `Cc1cccc(OCCc2nnc(N)s2)c1C` [5-[2-(2,3-Dimethyl-phenoxy)-ethyl]-[1,3,4]thiadiazol-2-ylamine] displayed an EC50 of 37.5 µM.

`Sc1nnc(CCc2ccc(Cl)cc2)o1` [5-[2-(4-chlorophenyl)ethyl]-1,3,4-oxadiazole-2-thiol]: the EC50 stood at 0.991 µM.

Molecule `COc1cccc(C=c2sc(=CC(=O)c3ccc(C)cc3)[nH]c2=O)c1OC` [5-[(2,3-dimethoxyphenyl)methylidene]-2-[2-(4-methylphenyl)-2-oxidanylidene-ethylidene]-1,3-thiazolidin-4-one] came in with an EC50 of 15.5 µM.

As to `O=C(NCc1cccnc1)c1ccc(COc2ccc(Cl)cc2Cl)o1` [5-[(2,4-dichlorophenoxy)methyl]-N-(3-pyridinylmethyl)-2-furancarboxamide], it took 668 µM to reach a half-maximal effect (EC50).

Turning to `O=C(NCc1ccc2c(c1)OCO2)c1ccc(COc2cc(Cl)ccc2Cl)o1` [5-[(2,5-dichlorophenoxy)methyl]-N-piperonyl-2-furamide], the half-maximal effective concentration (EC50) was found to be 6.14 µM.

In turn, `O=C(NCCc1cn2ccccc2n1)c1cc(COc2c(F)cccc2F)on1` [5-[(2,6-difluorophenoxy)methyl]-N-(2-imidazo[1,2-a]pyridin-2-ylethyl)-1,2-oxazole-3-carboxamide] showed an EC50 of 78.9 µM.

Regarding `O=C(NCCCn1ncc2ccccc21)c1cc(COc2c(F)cccc2F)on1` [5-[(2,6-difluorophenoxy)methyl]-N-(3-indazol-1-ylpropyl)-1,2-oxazole-3-carboxamide], under setting [1], the concentration giving a half-maximal response (EC50) is 18.7 µM.

In turn, `Cc1ccc(CN(C)C(=O)c2cc(COc3ccc(F)cc3Cl)on2)o1` [5-[(2-chloranyl-4-fluoranyl-phenoxy)methyl]-N-methyl-N-[(5-methylfuran-2-yl)methyl]-1,2-oxazole-3-carboxamide] displayed an EC50 under setting [1] of 89.2 µM.

With `Sc1nnc(CNc2cccc(Cl)c2)o1` [5-[(3-chloroanilino)methyl]-3H-1,3,4-oxadiazole-2-thione], the response was half-maximal at 1.75 µM (EC50).

In the case of `Sc1nnc(Nc2ccccc2)s1` [5-anilino-3H-1,3,4-thiadiazole-2-thione], it took 2.84 µM to reach a half-maximal effect (EC50).

The molecule `CCCn1c(N)c(C(=O)CSc2nnc(Cc3ccccc3)o2)c(=O)n(C)c1=O` [6-amino-3-methyl-5-[1-oxo-2-[[5-(phenylmethyl)-1,3,4-oxadiazol-2-yl]thio]ethyl]-1-propylpyrimidine-2,4-dione] showed an EC50 of 0.017 µM.

`Cc1nc2c(-c3ccc(Cl)cc3)c(C)[nH]n2c(=O)c1Cc1ccccc1` [6-benzyl-3-(4-chlorophenyl)-2,5-dimethylpyrazolo[1,5-a]pyrimidin-7(4H)-one] had an EC50 under setting [1] of 43.9 µM.

In the case of `CN(C)CCn1c(=S)[nH]c2ccc(Cl)cc2c1=O` [6-chloro-3-[2-(dimethylamino)ethyl]-2-thioxo-2,3-dihydroquinazolin-4(1H)-one], the half-maximal effective concentration (EC50) under setting [1] worked out at 67.2 µM.

Molecule `O=c1[nH]c2ccc(S(=O)(=O)N3CCN(c4ccccc4F)CC3)cc2s1` [6-{[4-(2-fluorophenyl)piperazin-1-yl]sulfonyl}-1,3-benzothiazol-2(3H)-one] yielded an EC50 of 5.64 µM.

`CCc1ccc(Nc2nnc(SCc3cc(=O)n4ccsc4n3)s2)cc1` [7-[[5-(4-ethylanilino)-1,3,4-thiadiazol-2-yl]sulfanylmethyl]-[1,3]thiazolo[3,2-a]pyrimidin-5-one] showed an EC50 of 0.202 µM.

With `COc1ccc(Nc2nnc(SCc3cc(=O)n4ccsc4n3)s2)cc1` [7-[[5-(4-methoxyanilino)-1,3,4-thiadiazol-2-yl]sulfanylmethyl]-[1,3]thiazolo[3,2-a]pyrimidin-5-one], under setting [1], the response was half-maximal at 8870 µM (EC50).

Under setting [1], `CC(C)Oc1ccccc1OCCCOc1cccc2cccnc12` [8-[3-(2-isopropoxyphenoxy)propoxy]quinoline] registered an EC50 of 10.5 µM.

Take `Cc1ccc2[nH]c3c(N4CCN(Cc5ccccc5)CC4)ncnc3c2c1` [8-methyl-4-[4-(phenylmethyl)-1-piperazinyl]-5H-pyrimido[5,4-b]indole]: it took 2.94 µM to reach a half-maximal effect (EC50).

Molecule `O=C(C1CCN(c2nc3ccc(Br)cc3s2)CC1)N1CCC2(CC1)OCCO2` [8-{[1-(6-bromo-1,3-benzothiazol-2-yl)piperidin-4-yl]carbonyl}-1,4-dioxa-8-azaspiro[4.5]decane] showed a 50% effective concentration (EC50) of 14.3 µM.

In turn, `O=C(C1CCCN(S(=O)(=O)c2cccc3nonc23)C1)N1CCC(Cc2ccccc2)CC1` (stereo not drawn) [(1-benzofurazan-4-ylsulfonyl-3-piperidyl)-(4-benzylpiperidino)methanone] registered an EC50 of 3810 µM.

The molecule `c1ccc(-n2cnc3cc(NCc4ccncc4)ccc32)cc1` [(1-phenylbenzimidazol-5-yl)-(4-pyridylmethyl)amine] had an EC50 of 1.92 µM.

`COc1ccc(NC(=S)NC(N)=Nc2nc(C)c3ccccc3n2)cc1` [(1E)-1-[amino-[(4-methyl-2-quinazolinyl)amino]methylidene]-3-(4-methoxyphenyl)thiourea] yielded an EC50 of 4.61 µM.

With `COc1cc(C(=S)N2CCOCC2)cc(OC)c1OC(=O)Cc1ccccc1` [(2,6-dimethoxy-4-morpholin-4-ylcarbothioyl-phenyl) 2-phenylethanoate], the EC50 amounted to 0.81 µM.

Regarding `c1ccc(-c2csc(N=NCc3ccco3)n2)cc1` [(2-furfurylideneamino)-(4-phenylthiazol-2-yl)amine], the EC50 amounted to 15 µM.

The molecule `COc1cc(C(=S)N2CCOCC2)ccc1OC(=O)Cc1ccc(F)cc1` [(2-methoxy-4-morpholin-4-ylcarbothioyl-phenyl) 2-(4-fluorophenyl)ethanoate] had an EC50 of 29.4 µM.

As for `CC1Cc2ccccc2N1C(=O)c1ccc(N2CCCCC2)c([N+](=O)[O-])c1` (stereo not drawn) [(2-methyl-2,3-dihydroindol-1-yl)-(3-nitro-4-piperidin-1-yl-phenyl)methanone], the EC50 came to 0.92 µM.

Molecule `CC1Cc2ccccc2N1C(=O)c1ccc(N2CCCC2)c([N+](=O)[O-])c1` (stereo not drawn) [(2-methyl-2,3-dihydroindol-1-yl)-(3-nitro-4-pyrrolidin-1-yl-phenyl)methanone] yielded an EC50 of 0.772 µM.

As for `COC(=O)[C@@H](NC(=O)O[C@@H]1C(=O)c2ccc(OC)cc2O[C@H]1c1cccc(C(F)(F)F)c1)C(C)C` [(2S)-2-[[(2S,3S)-4-keto-7-methoxy-2-[3-(trifluoromethyl)phenyl]chroman-3-yl]oxycarbonylamino]-3-methyl-butyric acid methyl ester], the response was half-maximal at 1.24 µM (EC50).

With `COC(=O)[C@@H](NC(=O)O[C@@H]1C(=O)c2cc(Br)ccc2O[C@H]1c1cccc(OC)c1)C(C)C` [(2S)-2-[[(2S,3S)-6-bromo-4-keto-2-(3-methoxyphenyl)chroman-3-yl]oxycarbonylamino]-3-methyl-butyric acid methyl ester], the response under setting [1] was half-maximal at 33.7 µM (EC50).

In turn, `N#CC(C(=O)COc1ccccc1)c1nc2ccccc2s1` (stereo not drawn) [(2Z)-2-(3H-1,3-benzothiazol-2-ylidene)-3-keto-4-phenoxy-butyronitrile] returned an EC50 of 8.56 µM.

`O=C(OCn1ncc(Cl)c(Cl)c1=O)c1ccc(F)cc1` [(4,5-dichloro-6-oxopyridazin-1-yl)methyl 4-fluorobenzoate] gave an EC50 of 14.1 µM.

Consider `CC(C)c1onc(C(=O)N2CCN(Cc3ccccc3)CC2)c1[N+](=O)[O-]` [(4-benzylpiperazin-1-yl)-(4-nitro-5-propan-2-yl-1,2-oxazol-3-yl)methanone], for which a half-maximal response (EC50) required 0.34 µM.

`Cc1onc(C(=O)N2CCN(Cc3ccccc3)CC2)c1[N+](=O)[O-]` [(4-benzylpiperazin-1-yl)-(5-methyl-4-nitro-1,2-oxazol-3-yl)methanone] displayed an EC50 of 59.4 µM.

In turn, `COc1ccc(C(=O)N2CCCC(c3ccccc3)C2)cc1` (stereo not drawn) [(4-methoxyphenyl)-(3-phenyl-1-piperidinyl)methanone] came in with an EC50 of 7.32 µM.

On to `CCOc1[nH]n(-c2ccccc2)c(=O)c1C=Nc1ccc(F)cc1F` [(4E)-4-[[[2,4-bis(fluoranyl)phenyl]amino]methylidene]-5-ethoxy-2-phenyl-pyrazol-3-one], for which the EC50 came out at 0.461 µM.

Under setting [1], `Cc1cc2ccccn2c1C(=O)c1nc(N2CCOCC2)ncc1Cl` [(5-chloranyl-2-morpholin-4-yl-pyrimidin-4-yl)-(2-methylindolizin-3-yl)methanone] gave a half-maximal effective concentration (EC50) of 11 µM.

One may read the EC50 as the concentration that produces a half-maximal response.
